According to PMC7504721, “Targeting the Initiator Protease of the Classical Pathway of Complement Using Fragment-Based Drug Discovery” (Molecules, 2020):
pKd: −log10 of the molar value.

What was measured:
[1] = molecular target: T1, full-length C1r (Homo sapiens, UniProt P00736); test: SPR dose-dependent binding, steady-state affinity
T1 construct: purchased Complement Technology (CompTech)
T1 sequence (P00736 18-463 limits assumed): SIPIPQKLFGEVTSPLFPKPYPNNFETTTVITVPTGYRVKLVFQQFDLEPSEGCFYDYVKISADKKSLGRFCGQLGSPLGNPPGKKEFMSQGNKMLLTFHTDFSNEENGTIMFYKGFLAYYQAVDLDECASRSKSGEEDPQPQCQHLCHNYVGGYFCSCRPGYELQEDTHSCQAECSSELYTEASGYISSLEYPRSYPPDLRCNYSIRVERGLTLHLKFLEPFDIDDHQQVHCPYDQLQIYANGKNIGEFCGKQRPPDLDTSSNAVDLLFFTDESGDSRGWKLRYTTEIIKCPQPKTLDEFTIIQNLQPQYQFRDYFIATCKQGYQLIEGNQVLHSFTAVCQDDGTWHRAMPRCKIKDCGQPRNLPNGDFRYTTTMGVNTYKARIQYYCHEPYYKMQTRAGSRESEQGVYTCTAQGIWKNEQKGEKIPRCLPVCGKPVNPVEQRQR
T1 sequence (P00736 464-705 limits assumed): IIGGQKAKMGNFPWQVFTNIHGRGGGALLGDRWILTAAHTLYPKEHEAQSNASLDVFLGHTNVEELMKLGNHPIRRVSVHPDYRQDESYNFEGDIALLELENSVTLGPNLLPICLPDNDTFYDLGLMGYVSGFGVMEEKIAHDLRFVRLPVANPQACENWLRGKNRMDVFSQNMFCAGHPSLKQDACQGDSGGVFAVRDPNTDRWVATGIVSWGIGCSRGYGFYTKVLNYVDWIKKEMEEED
Description: All SPR experiments were carried out using a Biacore T200 (GE Healthcare, Chicago, IL, USA) at 25 °C. For all experiments, a running buffer (HBS-T) of 20 mM HEPES (pH 7.3), 140 mM NaCl, 0.005% (v/v) Tween-20, 5% DMSO (v/v) was used. For each experiment, DMSO calibration curves ranging from 4% to 5.5% DMSO (v/v) were collected at the beginning, end, and every 50 cycles throughout the duration of the experiment. All experiments were performed using HC1500M sensor chips (Xantec, Duesseldorf, Germany). In total, 10 sensor chips and 16 ligand immobilized surfaces were created over the course of this study (detailed in Table S2). In all cases, C1r proteins were immobilized onto chip surfaces using amine-coupling chemistry with 1-ethyl-3-(3-dimethylaminopropyl)-carbodiimide) (EDC), N-hydroxysuccinimide (NHS), followed by ethanolamine. Briefly, 100 mM of EDC and NHS were mixed and injected to activate the chip surface followed by the C1r protein ligand captured at a defined resonance unit (RU) level, followed by reaction quenching with 100 mM ethanolamine pH 8.5. Flow cell 1 was always used as a reference cell (no ligand), unless otherwise noted. All sensorgrams were reference and blank subtracted and analyzed using T200 Evaluation Software (GE Healthcare, Chicago, IL, USA).
To further evaluate hit compounds from the initial SPR screen, dose-dependent SPR binding assays were carried out. Three replicate flow cells were used containing both low and high immobilization densities of C1r (see Table S2). Hit compounds were tested for dose-dependent binding to full-length C1r using a compound concentration range of 7.8–500 µM. T200 evaluation software was used to calculate steady-state affinities for each compound by fitting sensorgrams from each variable concentration injection dataset using a 1:1 Langmuir model of interaction constrained by a theoretical experimental binding response based on the mol. wt. of each compound and derived as stated above. KD values are reported as the mean ± the standard deviation from at least three independent measurements.

[2] = system: classical pathway; test: Classical pathway-specific ELISA-based complement inhibition assay (C4b deposition, IgM-coated plate, human serum); type: biochemical; conditions: single 500 µM concentration, triplicate, 1% normal human serum, unpaired t-test p < 0.05
Description: To carry out classical pathway ELISA-based inhibition assays, IgM was dissolved in coating buffer (100 mM Na2CO3/NaHCO3, pH 9.6) to a final concentration of 3 µg/mL and was dispensed into 96-well plates at 100 µL per well. Mannan was dissolved to 2 µg/mL and lipopolysaccharides (LPS) were dissolved to 10 µg/mL in coating buffer for use in lectin and alternative pathway inhibition assays, respectively. Immobilization was allowed to proceed overnight at 25 °C. The immobilization reagent was then removed, followed by three washes in washing buffer (50 mM Tris pH 8.0, 200 mM NaCl, 0.05% (v/v) Tween-20), and blocked using 100 µL of 1% (w/v) bovine serum albumin in PBS-T for 1 h at 37°C. Blocking buffer was removed and plates were washed three times in washing buffer. Next, 500 µM of each compound, 5% (v/v) DMSO, and 1% (v/v) normal human serum (Innovative Research) (final concentrations) were dissolved in classical/lectin pathway ELISA buffer (20 mM HEPES (pH 7.3), 0.1% (w/v) gelatin, 140 mM NaCl, 2 mM CaCl2, 0.5 mM MgCl2) and added to the IgM-coated plate for 1 h at 37 °C. For the lectin pathway-specific ELISAs shown in Figure 5D, we used C1q-depleted serum from CompTech at 2% (v/v) and thus the classical pathway assays for this analysis were also performed using serum from CompTech at 2% (v/v). For the alternative pathway, 20% (v/v) normal human serum (CompTech) (final concentration) and alternative pathway ELISA buffer (20 mM HEPES, (pH 7.5), 0.1% (w/v) gelatin, 140 mM NaCl, 2 mM CaCl2, 0.5 mM MgCl2) were used in place of classical/lectin pathway ELISA buffer. Plates were then washed three times in wash buffer and each well was filled with 100 µL of α-C4 (HYB 162-02, Santa Cruz Biotechnology) diluted 1:300 for classical and lectin pathway assays and 100 µL of C3b (WM-1, Sigma) diluted 1:300 for alternative pathway assays. Plates were again incubated at 37 °C for 1 h, washed three times, filled with 100 µL of HRP-conjugated goat-α-mouse secondary antibody (diluted 1:3000) (Thermo Scientific, Waltham, MA, USA), and rocked gently for 1 h at 25 °C. After three more washes, 50 µl of substrate (1-step Ultra TMB, Thermo Scientific, Waltham, MA, USA) was added to each well and rocked for 15 min in the dark at 25 °C. The reaction was stopped with 50 µL of 0.16 M sulfuric acid, and the plate was read at 450 nm using an EnSight multimode plate reader (Perkin-Elmer). Each column contained a positive control for full complement activity (5% (v/v) blank DMSO with 1% (v/v) serum) and a negative control for no complement activity (5% (v/v) blank DMSO and no serum). Positive controls (1% (v/v) serum, no inhibitor) were defined as 100% C4b or C3b signal whereas negative controls (no serum) were defined as 0% C4b or C3b signal for each column. Compounds that inhibited complement deposition relative to the control were then evaluated using the same assay setup across a two-fold variable concentration series for each compound (7.8–500 µM). […] All experiments were performed no less than three times.
Statistical analyses were performed using GraphPad Prism version 8. For complement inhibition assays, measures of statistical significance for single-dose experiments were assessed using unpaired Student’s t-tests compared to no inhibitor controls (pathway ELISAs) or non-binding control compounds (classical pathway ELISA). Statistical significance was defined as p < 0.05. Calculation of IC50 values from dose-dependent complement assays were obtained by non-linear regression analysis using a using an inhibitor vs. response model and with 95% confidence intervals reported. For non-linear regression analyses, the top and bottom of each curve were constrained to 100 and 0, respectively.

pKd ([1]; 1:1 steady-state binding model, mean ± S.D. from three independent injection series, 25 °C): 3.14
Ligand efficiency (LE) ([1]; LE = ΔG/number of non-hydrogen atoms, ΔG = -RT x ln KD,C1r, using KD values of Fig. 3): 0.25
SMILES: CN1c2ccccc2N(C)C1c1ccccc1 [CMP-4]
inhibition of classical pathway (C4b deposition) relative to non-binding control compound [2]: statistically significant inhibitory activity
